The results in this text go back to patent US20240140970A1, “A […], AND PREPARATION METHOD AND USE THEREOF” (ASCENTAWITS PHARMACEUTICALS, LTD., priority 2021, published 2024).

The data set can be described thus: Stability of AST-2660 in human plasma at −20° C. and −70° C. for one month (LC-MS/MS). It counts as in vitro ADME. As for the experimental part:
The detection method established in example 4 was used to detect the content of AST-2660 in the human plasma to be tested.
Matrix: the mixed normal human plasma containing anticoagulant (K2 EDTA) • a: the internal standard working solution: AST-2660-D8 was taken, added with methanol, and diluted to prepare a solution containing about 100 ng per 1 ml. • b: the solution to be tested (no internal standard compound was added to the solution to be tested at this time): it was obtained by taking a blood sample to be tested. • c: the standard working solution (no internal standard compound was added to the standard working solution at this time): an appropriate amount of AST-2660 was taken and accurately weighed, dissolved with methanol, and diluted to prepare a solution containing about 1.0 mg per 1 ml, which was used as the standard working stock solution. An appropriate amount of the standard working stock solution was taken, added with the matrix and diluted to prepare standard working solutions with different concentrations containing about 200 ng, 160 ng, 100 ng, 50 ng, 10 ng, 2.0 ng, 1.0 ng and 0.5 ng per 1 ml, respectively. (The solution was stored at −70° C.) • d: the quality control sample solution: an appropriate amount of AST-2660 was taken and accurately weighed, dissolved with methanol, and diluted to prepare a solution containing about 10 μg per 1 ml, which was used as the quality control working stock solution. An appropriate amount of the quality control working stock solution was taken, added with matrix to prepare quality control working solutions with different concentrations containing about 150 ng, 60 ng, 15 ng, 1.5 ng and 0.5 ng per 1 ml. (The solution was stored at −70° C.)
The solution to be tested, the standard working solution and the quality control sample solution were thawed at room temperature and mixed uniformly. 100 μl of the above solution was respectively taken, added with 20 μl of the internal standard and 500 μl of methanol, and vortexed for 3 minutes to mix uniformly, and then centrifuged for 10 minutes at 2143 rcf. 450 μl of the supernatant was taken and dried, and 150 μl of methanol was added for redissolution, and sonicated. Then the plates were centrifuged for 3 minutes at 4° C. It was obtained by taking […] of supernatant.
Liquid phase conditions: A SHARC 1, 3 μm, 2.1*50 mm or chromatograph column with equivalent performance was used; the mobile phase was a methanol solution comprising low content of ammonium acetate; the mobile phase B was acetonitrile; the gradient elution was performed according to the following table, column temperature: 20° C.; injection volume: 5 μl.
Mass spectrometric conditions: electrospray ion source with negative ion scanning mode; spray potential: −4500 V; ion source temperature: 500° C.; collision energy (CE): −22 eV; declustering potential (DP): −55V; entrance potential (EP): −10V; collision chamber exit potential (CXP): −16V; dwell time: 100 ms; high purity nitrogen was used for all gases; AST-2660 ions pairs: m/z 147.0→m/z 62.9; the internal standard AST-2660-D8 ion pairs: m/z 155.0→m/z 62.9.
The AST-2660 standard working solution, blank sample, zero concentration sample, sample solution to be tested and quality control sample solution with different concentrations after extraction were respectively taken and injected into LC-MS/MS for detection.
Calculation results: the relationship function y=f (x) of the ratio of the peak area of the AST-2660 to that of the internal standard was obtained from AST-2660 standard working solutions with different concentrations. The ratio of the peak area of the AST-2660 to that of the internal standard was determined from the solution to be tested after extraction, and substituted into the relationship function y=f (x) to calculate the concentration of the metabolite II in the solution to be tested.

Setting [1] is: QC1 nominal 1.50 ng/ml, 28 days at −20° C.
Setting [2] is: QC1 nominal 1.50 ng/ml, 28 days at −70° C.
The mark [3] stands for this setting: QC4 nominal 150 ng/ml, 28 days at −20° C.
Where [4] appears, read: QC4 nominal 150 ng/ml, 28 days at −70° C.

Values joined by “and” are separate entries in the source; they are usually repeats but may differ in a detail not shown here. Identical values can stand only once.

Take `O=P([O-])(N1CC1)N1CC1.[Na+]` [AST-2660]: the “change of AST-2660 content (in words)” value by setting is: (28 days of storage at −20° C.) “reduced significantly”; (28 days of storage at −70° C.) “almost no reduction”. Besides, the “RE (%) vs nominal” value runs as follows: (DilQC (10-fold dilution) nominal 1500 ng/ml, 28 days at −20° C.) −32.5%; (DilQC (10-fold dilution) nominal 1500 ng/ml, 28 days at −70° C.) −6.2%; under setting [1], −26.2%; under setting [2], 2.2%; under setting [3], −3.0%; under setting [4], −3.5%. Further, the “AST-2660 concentration, Mean value” is 1.11 ng/mL under setting [1], 1.53 ng/mL under setting [2], 146 ng/mL under setting [3] and 145 ng/mL under setting [4]. Further, the “AST-2660 concentration, single replicates” value is, setting by setting: under setting [1], 1.01 ng/mL and 1.03 ng/mL and 1.14 ng/mL and 1.25 ng/mL; under setting [2], 1.52 ng/mL and 1.53 ng/mL and 1.59 ng/mL and 1.49 ng/mL; under setting [3], 147 ng/mL and 141 ng/mL and 149 ng/mL and 145 ng/mL; under setting [4], 142 ng/ml (2×) and 150 ng/ml and 145 ng/ml.
